Laboratory results from patent US11478461B2, “[1.1.1] bicyclo compounds as indoleamine 2,3-dioxygenase inhibitors” (Merck Sharp & Dohme Corp., priority 2018, dated 2022).

These compounds were tested against IDO1 (Homo sapiens, UniProt P14902) (assay: IDO1 Cellular Assay in Hela Cells Stimulated with IFNγ). Conditions: IFNγ 100 ng/mL, 300 uM L-tryptophan, about 48 hours, fluorescence readout, read-out: IDO1 HELA Cell Assay, IC50.
Type: cell-based
Method: Biological Assays IDO1 Cellular Assay in Hela Cells Stimulated with IFNγ
Hela cells were cultured in complete Hela culture medium ([…], 10% heat-inactivated fetal bovine serum) and expanded to about 1×10^9 cells. The cells were then collected and frozen down at 10×10^6 cells/vial in 1 mL frozen medium (90% complete Hela culture medium, 10% DMSO).
Compounds to be tested were serially diluted in ten 3-fold steps in DMSO starting from 10 mM DMSO stocks in Echo low volume plate(s). Compound dilutions or DMSO alone were then dispensed from the dilution plate(s) into Greiner black 384-well assay plate(s) (catalog #781086, 50 nL/well) using an Echo 550 acoustic liquid handler (Labcyte).
Frozen Hela cells were thawed and transferred into Hela assay medium (99% complete Hela culture medium, 1% Pen/Strep) with 20 mL medium/vial of cells. The cells were spun down at 250 g in a table top centrifuge for 5 min and suspended in same volume of Hela assay medium. […] Sterile L-tryptophan were added to the cells with final concentration of 300 uM L-tryptophan. A small aliquot (2 mL/plate) of Hela cells were set aside and were not treated with IFNγ, to serve as the Max-E control. The rest of Hela cells were added with sterile IFNγ (Cat #285-IF, R & D systems) with a final concentration of 100 ng/mL.
Hela cells with and without IFNγ were dispensed to the respective wells of 384-well assay plates containing the compounds. The plates were incubated for about 48 hours at a 37° C., 5% CO2 incubator. Afterwards, 12 μL of 0.5 M methyl isonipecotate in dimethyl sulfoxide were added into each well and the plates were sealed and incubated at 37° C. without CO2 overnight. The plates were centrifuged for 1 min at 200×g. The resulting fluorescence was measured in a Spectramax plate reader (Molecular Devices) with a 400 nm excitation filter and a 510 nm emission filter.
Potencies were calculated by […] least squares fit to the four parameter logistic IC50 equation.

Chain of IDO1 (P14902 whole entry): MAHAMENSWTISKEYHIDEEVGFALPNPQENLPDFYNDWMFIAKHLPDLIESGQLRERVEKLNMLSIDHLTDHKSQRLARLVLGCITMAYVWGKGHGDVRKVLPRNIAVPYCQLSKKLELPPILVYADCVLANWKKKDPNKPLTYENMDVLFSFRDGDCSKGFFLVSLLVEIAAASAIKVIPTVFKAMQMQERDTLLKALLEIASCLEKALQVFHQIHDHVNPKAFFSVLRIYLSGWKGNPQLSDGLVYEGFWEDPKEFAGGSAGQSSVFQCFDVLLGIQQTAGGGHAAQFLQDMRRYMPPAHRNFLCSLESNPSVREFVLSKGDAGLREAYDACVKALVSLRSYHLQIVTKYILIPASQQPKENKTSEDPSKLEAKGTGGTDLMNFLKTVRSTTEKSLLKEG

Going from C[C@@H](C(=O)Nc1ccc(F)cc1)C12CC(NC(=O)c3cc(F)cc(Cl)c3)(C1)C2 [Example 40, 3-chloro-5-fluoro-N-[3-[(1R)-2-(4-fluoroanilino)-1-methyl-2-oxo-ethyl]-1-bicyclo[1.1.1]pentanyl]benzamide] to C[C@H](C(=O)Nc1ccc(F)cc1)C12CC(NC(=O)c3cc(F)cc(Cl)c3)(C1)C2 [Example 55, 3-chloro-5-fluoro-N-[3-[(1S)-2-(4-fluoroanilino)-1-methyl-2-oxo-ethyl]-1-bicyclo[1.1.1]pentanyl]benzamide], the IC50 rises from 2.35 nM to 152 nM (65-fold). The first is the more potent here.

Going from Cc1ccc(C(=O)NC23CC([C@@H](C)C(=O)Nc4ccc(F)cc4)(C2)C3)cc1F [Example 41, 3-fluoro-N-[3-[(1R)-2-(4-fluoroanilino)-1-methyl-2-oxo-ethyl]-1-bicyclo[1.1.l]pentanyl]-4-methyl-benzamide] to Cc1ccc(C(=O)NC23CC([C@H](C)C(=O)Nc4ccc(F)cc4)(C2)C3)cc1F [Example 58, 3-fluoro-N-[3-[(1S)-2-(4-fluoroanilino)-1-methyl-2-oxo-ethyl]-1-bicyclo[1.1.1]pentanyl]-4-methyl-benzamide], the IC50 falls from 405 nM to 16.6 nM (24-fold).

First: C[C@@H](C(=O)Nc1ccc(F)cc1)C12CC(NC(=O)c3cccc(C(F)(F)F)c3)(C1)C2 [Example 42, N-[3-[(1R)-2-(4-fluoroanilino)-1-methyl-2-oxo-ethyl]-1-bicyclo[1.1.1]pentanyl]-3-(trifluoromethyl)benzamide]
Second: C[C@H](C(=O)Nc1ccc(F)cc1)C12CC(NC(=O)c3cccc(C(F)(F)F)c3)(C1)C2 [Example 62, N-[3-[(1S)-2-(4-fluoroanilino)-1-methyl-2-oxo-ethyl]-1-bicyclo[1.1.1]pentanyl]-3-(trifluoromethyl)benzamide]
The IC50 of the first is 6.2-fold lower: 5.02 nM for the first, 30.9 nM for the second.

Compared with C[C@@H](C(=O)Nc1ccc(F)cc1)C12CC(NC(=O)c3ccc(F)c(F)c3)(C1)C2 [Example 43, 3,4-difluoro-N-[3-[(1R)-2-(4-fluoroanilino)-1-methyl-2-oxo-ethyl]-1-bicyclo[1.1.1]pentanyl]benzamide], C[C@H](C(=O)Nc1ccc(F)cc1)C12CC(NC(=O)c3ccc(F)c(F)c3)(C1)C2 [Example 69, (S)-3,4-Difluoro-N-(3-(1-((4-fluorophenyl)amino)-1-oxopropan-2-yl)bicyclo[1.1.1]pentan-1-yl)benzamide] is 6.5-fold lower in IC50: 153 nM for the first, 23.6 nM for the second. The second is the more potent here.

Compared with Cc1ccc(C(=O)NC23CC([C@@H](C)C(=O)Nc4ccc(F)cc4)(C2)C3)cc1Cl [Example 44, 3-chloro-N-[3-[(1R)-2-(4-fluoroanilino)-1-methyl-2-oxo-ethyl]-1-bicyclo[1.1.1]pentanyl]-4-methyl-benzamide], Cc1ccc(C(=O)NC23CC([C@H](C)C(=O)Nc4ccc(F)cc4)(C2)C3)cc1Cl [Example 49, 3-chloro-N-[3-[(1S)-2-(4-fluoroanilino)-1-methyl-2-oxo-ethyl]-1-bicyclo[1.1.1]pentanyl]-4-methyl-benzamide] is 110-fold higher in IC50: 2.28 nM for the first, 250 nM for the second.

Going from Cc1cc(C(=O)NC23CC([C@@H](C)C(=O)Nc4ccc(F)cc4)(C2)C3)ccc1Cl [Example 45, 4-chloro-N-[3-[(1R)-2-(4-fluoroanilino)-1-methyl-2-oxo-ethyl]-1-bicyclo[1.1.l]pentanyl]-3-methyl-benzamide] to Cc1cc(C(=O)NC23CC([C@H](C)C(=O)Nc4ccc(F)cc4)(C2)C3)ccc1Cl [Example 50, 4-chloro-N-[3-[(1S)-2-(4-fluoroanilino)-1-methyl-2-oxo-ethyl]-1-bicyclo[1.1.l]pentanyl]-3-methyl-benzamide], the IC50 falls from 109 nM to 3.29 nM (33-fold). The second is the more potent here.

Going from C[C@H](C(=O)Nc1ccc(F)cc1)C12CC(NC(=O)c3ccc(Cl)c(F)c3)(C1)C2 [Example 47, 4-chloro-3-fluoro-N-[3-[(1S)-2-(4-fluoroanilino)-1-methyl-2-oxo-ethyl]-1-bicyclo[1.1.1]pentanyl]benzamide] to C[C@H](C(=O)Nc1ccc(F)cc1)C12CC(NC(=O)c3ccc(F)c(Cl)c3)(C1)C2 [Example 48, 3-chloro-4-fluoro-N-[3-[(1S)-2-(4-fluoroanilino)-1-methyl-2-oxo-ethyl]-1-bicyclo[1.1.1]pentanyl]benzamide], the IC50 falls from 152 nM to 1.72 nM (88-fold). The second is the more potent here.

First: C[C@H](C(=O)Nc1ccc(F)cc1)C12CC(NC(=O)c3cccc(Cl)c3F)(C1)C2 [Example 51, 3-chloro-2-fluoro-N-[3-[(1S)-2-(4-fluoroanilino)-1-methyl-2-oxo-ethyl]-1-bicyclo[1.1.1]pentanyl]benzamide]
Second: Cc1c(Cl)cccc1C(=O)NC12CC([C@H](C)C(=O)Nc3ccc(F)cc3)(C1)C2 [Example 53, 3-chloro-N-[3-[(1S)-2-(4-fluoroanilino)-1-methyl-2-oxo-ethyl]-1-bicyclo[1.1.1]pentanyl]-2-methyl-benzamide]
The IC50 of the first is 1.8-fold higher: 226 nM for the first, 123 nM for the second.

Compared with Cc1cc(C(=O)NC23CC([C@H](C)C(=O)Nc4ccc(F)cc4)(C2)C3)ccc1F [Example 54, 4-fluoro-N-[3-[(1S)-2-(4-fluoroanilino)-1-methyl-2-oxo-ethyl]-1-bicyclo[1.1.1]pentanyl]-3-methyl-benzamide], COc1cc(C(=O)NC23CC([C@H](C)C(=O)Nc4ccc(F)cc4)(C2)C3)ccc1F [Example 67, 4-fluoro-N-[3-[(1S)-2-(4-fluoroanilino)-1-methyl-2-oxo-ethyl]-1-bicyclo[1.1.1]pentanyl]-3-methoxy-benzamide] is 1.9-fold lower in IC50: 187 nM for the first, 98 nM for the second.

Cc1ccnc(C(=O)NC23CC([C@H](C)C(=O)Nc4ccc(F)cc4)(C2)C3)n1 [Example 57, N-[3-[(1S)-2-(4-fluoroanilino)-1-methyl-2-oxo-ethyl]-1-bicyclo[1.1.1]pentanyl]-4-methyl-pyrimidin-1-ium-2-carboxamide] and Cc1ccc(C(=O)NC23CC([C@H](C)C(=O)Nc4ccc(F)cc4)(C2)C3)nc1Cl [Example 61, 6-chloro-N-[3-[(1S)-2-(4-fluoroanilino)-1-methyl-2-oxo-ethyl]-1-bicyclo[1.1.1]pentanyl]-5-methyl-pyridin-1-ium-2-carboxamide] are within 1.5-fold of each other in IC50: 15.7 nM for the first, 11 nM for the second.

Compared with C[C@H](C(=O)Nc1ccc(F)cc1)C12CC(NC(=O)c3cncc(Cl)c3)(C1)C2 [Example 59, 5-chloro-N-[3-[(1S)-2-(4-fluoroanilino)-1-methyl-2-oxo-ethyl]-1-bicyclo[1.1.1]pentanyl]pyridin-1-ium-3-carboxamide], C[C@H](C(=O)Nc1ccc(F)cc1)C12CC(NC(=O)c3cncc(C(F)(F)F)c3)(C1)C2 [Example 68, N-[3-[(1S)-2-(4-fluoroanilino)-1-methyl-2-oxo-ethyl]-1-bicyclo[1.1.1]pentanyl]-5-(trifluoromethyl)pyridin-1-ium-3-carboxamide] is 2.1-fold higher in IC50: 6.52 nM for the first, 13.9 nM for the second.

First: C[C@H](C(=O)Nc1ccc(F)cc1)C12CC(NC(=O)c3ccc(Cl)nc3)(C1)C2 [Example 60, 6-chloro-N-[3-[(1S)-2-(4-fluoroanilino)-1-methyl-2-oxo-ethyl]-1-bicyclo[1.1.1]pentanyl]pyridin-1-ium-3-carboxamide]
Second: C[C@H](C(=O)Nc1ccc(F)cc1)C12CC(NC(=O)c3cnc(Cl)c(Cl)c3)(C1)C2 [Example 63, 5,6-dichloro-N-[3-[(1S)-2-(4-fluoroanilino)-1-methyl-2-oxo-ethyl]-1-bicyclo[1.1.1]pentanyl]pyridin-1-ium-3-carboxamide]
The IC50 of the first is 14-fold higher: 157 nM for the first, 11.4 nM for the second. The second is the more potent here.

First: Cc1ccc(C(=O)NC23CC([C@H](C)C(=O)Nc4ccc(F)cc4)(C2)C3)nc1C [Example 64, N-[3-[(1S)-2-(4-fluoroanilino)-1-methyl-2-oxo-ethyl]-1-bicyclo[1.1.1]pentanyl]-5,6-dimethyl-pyridin-1-ium-2-carboxamide]
Second: Cc1ncc(C(=O)NC23CC([C@H](C)C(=O)Nc4ccc(F)cc4)(C2)C3)cc1F [Example 65, 5-fluoro-N-[3-[(1S)-2-(4-fluoroanilino)-1-methyl-2-oxo-ethyl]-1-bicyclo[1.1.1]pentanyl]-6-methyl-pyridin-1-ium-3-carboxamide]
The IC50 of the first is 2.5-fold lower: 11.4 nM for the first, 28.1 nM for the second.

C[C@H](C(=O)Nc1ccc(F)cc1)C12CC(NC(=O)c3ccnc(C(F)(F)F)c3)(C1)C2 [Example 66, N-[3-[(1S)-2-(4-fluoroanilino)-1-methyl-2-oxo-ethyl]-1-bicyclo[1.1.1]pentanyl]-2-(trifluoromethyl)pyridin-1-ium-4-carboxamide] and C[C@H](C(=O)Nc1ccc(F)cc1)C12CC(NC(=O)Nc3cccc(Cl)c3)(C1)C2 [Example 81, (S)-2-(3-(3-(3-chlorophenyl)ureido)bicyclo [1.1.1]pentan-1-yl)-N-(4-fluorophenyl)propanamide] are within 1.5-fold of each other in IC50: 13.1 nM for the first, 15.4 nM for the second.

C[C@H](C(=O)Nc1ccc(F)cc1)C12CC(NC(=O)OCc3ccccc3)(C1)C2 [Example 78, benzyl (S)-(3-(1-((4-fluorophenyl)amino)-1-oxopropan-2-yl)bicyclo[1.1.1]pentan-1-yl)carbamate] and CC(C)OC(=O)NC12CC([C@H](C)C(=O)Nc3ccc(F)cc3)(C1)C2 [Example 79, isopropyl (S)-(3-(1-((4-fluorophenyl)amino)-1-oxopropan-2-yl)bicyclo[1.1.1]pentan-1-yl)carbamate] are within 1.5-fold of each other in IC50: 21.8 nM for the first, 20.4 nM for the second.
